From US20140005163A1 (NOVARTIS AG, priority 2010, published 2014)

Experiments:
PI3K alpha = molecular target: T1, PI3K alpha (Homo sapiens, UniProt P42336); experiment: PI3K alpha kinase assay (Kinase-Glo luminescence); type: biochemical
T1 construct: p85(iSH2) fusion partner (see partner chain) (N); His tag (C); made in house; host or cells: baculovirus; Tn5 (Trichoplusia ni) or TiniPro insect cells
Procedure, shortened: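 IC50 is taken from a four-parameter logistic fit of 8-point dilutions, with Kinase-Glo luminescence reporting residual ATP. Reactions ran 60 min at room temperature in TRIS pH 7.5 buffer with MgCl2, NaCl, CHAPS and DTT. Final levels were 10 nM enzyme, 1 μM ATP and 10 μg/mL PI.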

PI3K beta = molecular target: T2, PI3K beta (Homo sapiens, UniProt P42338); experiment: PI3K beta kinase assay (Kinase-Glo luminescence); type: biochemical
T2 construct: for the full-length p110-b subunit are generated and fused by overlapping PCR; p85(iSH2) fusion partner (see partner chain) (N); His tag (C); made in house; host or cells: baculovirus; Tn5 (Trichoplusia ni) or TiniPro insect cells
T2 sequence (P42338 with tags, fused parts or gaps limits assumed): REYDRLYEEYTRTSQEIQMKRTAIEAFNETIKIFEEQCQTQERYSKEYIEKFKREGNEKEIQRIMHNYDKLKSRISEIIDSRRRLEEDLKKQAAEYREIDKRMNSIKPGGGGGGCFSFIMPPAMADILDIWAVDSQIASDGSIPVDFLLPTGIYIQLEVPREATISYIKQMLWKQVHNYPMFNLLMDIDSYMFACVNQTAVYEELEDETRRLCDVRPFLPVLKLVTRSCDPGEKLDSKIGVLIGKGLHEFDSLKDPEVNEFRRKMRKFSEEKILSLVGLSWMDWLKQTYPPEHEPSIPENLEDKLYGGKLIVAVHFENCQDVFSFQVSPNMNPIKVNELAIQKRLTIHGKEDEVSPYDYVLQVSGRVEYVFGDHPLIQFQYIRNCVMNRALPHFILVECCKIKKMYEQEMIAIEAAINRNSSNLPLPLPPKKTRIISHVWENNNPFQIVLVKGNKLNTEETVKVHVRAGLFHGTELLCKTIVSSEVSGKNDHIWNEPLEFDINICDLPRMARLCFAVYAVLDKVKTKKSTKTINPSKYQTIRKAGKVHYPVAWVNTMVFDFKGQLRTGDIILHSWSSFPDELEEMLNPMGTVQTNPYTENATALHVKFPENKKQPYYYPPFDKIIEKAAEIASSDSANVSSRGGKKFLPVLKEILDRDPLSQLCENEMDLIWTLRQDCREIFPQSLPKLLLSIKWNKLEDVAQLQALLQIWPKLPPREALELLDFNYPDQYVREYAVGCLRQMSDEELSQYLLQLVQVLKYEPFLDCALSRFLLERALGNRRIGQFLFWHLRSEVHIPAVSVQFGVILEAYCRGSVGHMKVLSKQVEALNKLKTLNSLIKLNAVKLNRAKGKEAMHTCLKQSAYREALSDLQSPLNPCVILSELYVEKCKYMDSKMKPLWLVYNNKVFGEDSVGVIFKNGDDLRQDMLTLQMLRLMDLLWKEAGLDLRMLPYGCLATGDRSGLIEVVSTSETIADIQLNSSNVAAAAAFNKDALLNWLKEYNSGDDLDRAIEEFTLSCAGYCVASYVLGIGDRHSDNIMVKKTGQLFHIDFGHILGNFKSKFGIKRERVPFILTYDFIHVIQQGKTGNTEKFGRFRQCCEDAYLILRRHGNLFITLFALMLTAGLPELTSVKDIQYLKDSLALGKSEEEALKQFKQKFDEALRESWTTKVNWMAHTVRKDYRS
Procedure, shortened: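 Kinase-Glo luminescence after a 60 min room-temperature reaction gives remaining ATP. The reaction holds 25 nM p85(iSH2)-p110β full-length His-tagged construct, 1 μM ATP, 10 μg/mL PI, and eight compound concentrations at 0.45% DMSO final. IC50 values come from a four-parameter logistic fit.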

mTOR = molecular target: T3, mTOR (Homo sapiens, UniProt P42345); experiment: Biochemical assay for m-TOR by TR-FRET; conditions: 8 μM ATP, 400 nM GFP-4EBP1, 0.5 nM mTOR
T3 construct: purchased Invitrogen Corporation (Carlsbad/CA, USA) PV4753
T3 sequence (P42345 1360-2549 limits assumed): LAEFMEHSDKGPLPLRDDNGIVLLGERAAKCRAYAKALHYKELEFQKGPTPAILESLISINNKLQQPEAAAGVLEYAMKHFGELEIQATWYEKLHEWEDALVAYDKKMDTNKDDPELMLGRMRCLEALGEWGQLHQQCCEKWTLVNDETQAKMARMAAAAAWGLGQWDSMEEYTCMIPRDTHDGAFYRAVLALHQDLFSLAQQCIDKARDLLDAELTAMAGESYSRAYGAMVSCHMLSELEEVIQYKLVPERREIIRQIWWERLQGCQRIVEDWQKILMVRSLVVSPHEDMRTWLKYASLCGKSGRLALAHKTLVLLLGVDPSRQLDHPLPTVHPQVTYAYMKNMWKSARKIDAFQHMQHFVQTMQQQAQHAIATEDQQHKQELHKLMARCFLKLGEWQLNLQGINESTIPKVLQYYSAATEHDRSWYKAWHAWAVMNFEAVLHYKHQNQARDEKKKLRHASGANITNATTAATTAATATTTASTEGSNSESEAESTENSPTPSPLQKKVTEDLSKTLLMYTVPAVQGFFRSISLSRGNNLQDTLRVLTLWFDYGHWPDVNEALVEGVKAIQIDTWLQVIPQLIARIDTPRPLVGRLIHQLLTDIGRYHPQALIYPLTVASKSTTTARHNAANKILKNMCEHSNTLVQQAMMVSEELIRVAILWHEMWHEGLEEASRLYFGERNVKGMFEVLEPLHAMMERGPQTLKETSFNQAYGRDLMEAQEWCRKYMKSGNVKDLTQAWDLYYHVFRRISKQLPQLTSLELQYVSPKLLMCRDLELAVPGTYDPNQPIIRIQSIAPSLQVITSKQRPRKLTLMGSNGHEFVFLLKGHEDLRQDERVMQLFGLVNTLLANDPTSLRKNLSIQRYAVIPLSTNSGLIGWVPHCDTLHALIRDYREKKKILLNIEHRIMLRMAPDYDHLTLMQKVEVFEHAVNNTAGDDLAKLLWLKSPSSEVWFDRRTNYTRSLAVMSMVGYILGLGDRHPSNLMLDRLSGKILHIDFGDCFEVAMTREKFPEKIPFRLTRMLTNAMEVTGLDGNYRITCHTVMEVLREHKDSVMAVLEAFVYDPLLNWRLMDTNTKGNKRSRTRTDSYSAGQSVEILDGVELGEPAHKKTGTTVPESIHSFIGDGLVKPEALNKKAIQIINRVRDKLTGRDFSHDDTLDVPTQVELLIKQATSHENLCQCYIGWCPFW
Procedure, shortened: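 TR-FRET read-out: Tb-labelled anti-p4EBP1 pThr46 antibody (0.5 nM), added in EDTA to stop the reaction, detects phosphorylated GFP-4EBP1 after 15 min. Kinase step used 0.5 nM mTOR, 400 nM substrate, 8 μM ATP, MnCl2-containing HEPES buffer pH 7.5, room temperature.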

T1 sequence (P42336 with tags, fused parts or gaps limits assumed): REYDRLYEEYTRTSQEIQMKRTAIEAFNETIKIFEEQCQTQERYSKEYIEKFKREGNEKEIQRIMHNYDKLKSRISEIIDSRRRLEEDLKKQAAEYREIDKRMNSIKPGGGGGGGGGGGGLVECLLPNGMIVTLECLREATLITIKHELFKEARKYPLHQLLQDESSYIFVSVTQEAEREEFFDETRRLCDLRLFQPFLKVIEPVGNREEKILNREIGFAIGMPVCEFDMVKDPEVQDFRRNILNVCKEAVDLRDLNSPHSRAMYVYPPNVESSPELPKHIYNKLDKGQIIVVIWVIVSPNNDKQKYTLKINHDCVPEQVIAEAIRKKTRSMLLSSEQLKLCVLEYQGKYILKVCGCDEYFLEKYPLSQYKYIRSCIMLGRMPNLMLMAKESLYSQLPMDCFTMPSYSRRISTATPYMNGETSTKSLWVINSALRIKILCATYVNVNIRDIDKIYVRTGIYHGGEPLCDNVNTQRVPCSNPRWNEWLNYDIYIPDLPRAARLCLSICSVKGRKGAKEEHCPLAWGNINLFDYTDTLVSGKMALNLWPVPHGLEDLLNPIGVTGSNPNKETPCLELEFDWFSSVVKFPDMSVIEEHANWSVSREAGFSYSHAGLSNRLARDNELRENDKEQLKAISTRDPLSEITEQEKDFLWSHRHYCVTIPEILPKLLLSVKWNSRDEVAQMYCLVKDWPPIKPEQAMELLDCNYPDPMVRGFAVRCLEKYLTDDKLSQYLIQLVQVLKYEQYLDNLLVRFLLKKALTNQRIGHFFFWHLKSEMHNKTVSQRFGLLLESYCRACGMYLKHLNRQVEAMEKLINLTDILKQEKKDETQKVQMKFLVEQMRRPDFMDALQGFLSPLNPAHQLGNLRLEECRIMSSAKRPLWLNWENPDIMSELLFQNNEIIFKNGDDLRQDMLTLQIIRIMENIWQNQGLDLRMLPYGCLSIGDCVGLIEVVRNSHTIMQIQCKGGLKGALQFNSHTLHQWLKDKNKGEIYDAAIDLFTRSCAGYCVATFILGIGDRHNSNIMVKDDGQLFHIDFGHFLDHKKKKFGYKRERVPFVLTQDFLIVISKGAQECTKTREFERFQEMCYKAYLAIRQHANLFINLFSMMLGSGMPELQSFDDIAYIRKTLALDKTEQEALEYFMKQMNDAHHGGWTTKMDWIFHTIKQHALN

Compound	IC50 (PI3K alpha) [nM]	IC50 (PI3K beta) [nM]	IC50 (mTOR) [nM]
CCOc1ccc(-c2ccc3ncc4c(c3c2)n(-c2c(C)nn(C)c2C)c(=O)n4C)cc1OCC [Example 27.2, 8-(3,4-Diethoxy-phenyl)-3-methyl-1-(1,3,5-trimethyl-1H-pyrazol-4-yl)-1,3-dihydro-imidazo[4,5-c]quinolin-2-one]	48	173	363
CCOc1ccc(-c2ccc3ncc4c(c3c2)n(-c2cn(CC)nc2C)c(=O)n4C)cc1OC [Example 29.1, 8-(4-Ethoxy-3-methoxy-phenyl)-1-(1-ethyl-3-methyl-1H-pyrazol-4-yl)-3-methyl-1,3-dihydro-imidazo[4,5-c]quinolin-2-one]	24	57	26
Cc1nn(C)cc1-n1c(=O)n(C)c2cnc3ccc(-c4cnc5ccccc5c4)cc3c21 [Example 38, 1-(1,3-Dimethyl-1H-pyrazol-4-yl)-3-methyl-8-quinolin-3-yl-1,3-dihydro-imidazo[4,5-c]quinolin-2-one]	8	40	6
Cc1nn(C)cc1-n1c(=O)n(C)c2cnc3ccc(-c4cccc(S(=O)(=O)N5CCCC5)c4)cc3c21 [Example 44, 1-(1,3-Dimethyl-1H-pyrazol-4-yl)-3-methyl-8-[3-(pyrrolidine-1-sulfonyl)-phenyl]-1,3-dihydro-imidazo[4,5-c]quinolin-2-one]	70	218	563
CCn1cc(-n2c(=O)n(C)c3cnc4ccc(-c5cncc(N)c5)cc4c32)c(C)n1 [Example 45.2, 8-(5-Amino-pyridin-3-yl)-1-(1-ethyl-3-methyl-1H-pyrazol-4-yl)-3-methyl-1,3-dihydro-imidazo[4,5-c]quinolin-2-one]	74	29	24
Cc1nn(C(C)C)cc1-n1c(=O)n(C)c2cnc3ccc(-c4cncc(N)c4)cc3c21 [Example 45.3, 8-(5-Amino-pyridin-3-yl)-1-(1-isopropyl-3-methyl-1H-pyrazol-4-yl)-3-methyl-1,3-dihydro-imidazo[4,5-c]quinolin-2-one]	76	169	7
CCOc1cncc(-c2ccc3ncc4c(c3c2)n(-c2cn(CC(=O)N(C)C)nc2C)c(=O)n4C)c1 [Example 56.2, 2-{4-[8-(5-Ethoxy-pyridin-3-yl)-3-methyl-2-oxo-2,3-dihydro-imidazo[4,5-c]quinolin-1-yl]-3-methyl-pyrazol-1-yl}-N,N-dimethyl-acetamide]	25	317	52
Cc1cnn(C)c1-n1c(=O)n(C)c2cnc3ccc(-c4cncc(OC(C)C)c4)cc3c21 [Example 58.3, 1-(2,4-Dimethyl-2H-pyrazol-3-yl)-8-(5-isopropoxy-pyridin-3-yl)-3-methyl-1,3-dihydro-imidazo[4,5-c]quinolin-2-one]	236	203	566
COCCOc1cncc(-c2ccc3ncc4c(c3c2)n(-c2cn(C)nc2Cl)c(=O)n4C)c1 [Example 59.2, 1-(3-Chloro-1-methyl-1H-pyrazol-4-yl)-8-[5-(2-methoxy-ethoxy)-pyridin-3-yl]-3-methyl-1,3-dihydro-imidazo[4,5-c]quinolin-2-one]	5	19	26
CCOc1ncc(-c2ccc3ncc4c(c3c2)n(-c2cn(C)nc2C)c(=O)n4C)cc1N(C)C(C)=O [Example 63, N-{5-[1-(1,3-Dimethyl-1H-pyrazol-4-yl)-3-methyl-2-oxo-2,3-dihydro-1H-imidazo[4,5-c]quinolin-8-yl]-2-ethoxy-pyridin-3-yl}-N-methyl-acetamide]	92	110	306
Cc1ncc(-c2ccc3ncc4c(c3c2)n(-c2cn(C)nc2C)c(=O)n4C)cc1NS(C)(=O)=O [Example 76, N-{5-[1-(1,3-Dimethyl-1H-pyrazol-4-yl)-3-methyl-2-oxo-2,3-dihydro-1H-imidazo[4,5-c]quinolin-8-yl]-2-methyl-pyridin-3-yl}-methanesulfonamide]	6	10	5
CCOc1cc(-c2ccc3ncc4c(c3c2)n(-c2c(C)nn(CC(=O)N(C)C)c2C)c(=O)n4C)cnc1C [Example 85.3, 2-{4-[8-(5-Ethoxy-6-methyl-pyridin-3-yl)-3-methyl-2-oxo-2,3-dihydro-imidazo[4,5-c]quinolin-1-yl]-3,5-dimethyl-pyrazol-1-yl}-N,N-dimethyl-acetamide]	34	477	329
CCNc1cc(-c2ccc3ncc4c(c3c2)n(-c2cn(C)nc2Cl)c(=O)n4C)cnc1C [Example 87.2, 1-(3-Chloro-1-methyl-1H-pyrazol-4-yl)-8-(5-ethylamino-6-methyl-pyridin-3-yl)-3-methyl-1,3-dihydro-imidazo[4,5-c]quinolin-2-one]	30	22	< 3
CCNc1cc(-c2ccc3ncc4c(c3c2)n(-c2cn(CC)nc2C)c(=O)n4C)cnc1C [Example 87.3, 8-(5-Ethylamino-6-methyl-pyridin-3-yl)-1-(1-ethyl-3-methyl-1H-pyrazol-4-yl)-3-methyl-1,3-dihydro-imidazo[4,5-c]quinolin-2-one]	9	12	< 3
COc1ncc(-c2ccc3ncc4c(c3c2)n(-c2cn(C)nc2Cl)c(=O)n4C)cc1N [Example 89, 8-(5-Amino-6-methoxy-pyridin-3-yl)-1-(3-chloro-1-methyl-1H-pyrazol-4-yl)-3-methyl-1,3-dihydro-imidazo[4,5-c]quinolin-2-one]	18	23	3
Cc1nn(C)cc1-n1c(=O)n(C)c2cnc3ccc(-c4ccnc(OC(C)C)c4)cc3c21 [Example 92, 1-(1,3-Dimethyl-1H-pyrazol-4-yl)-8-(2-isopropoxy-pyridin-4-yl)-3-methyl-1,3-dihydro-imidazo[4,5-c]quinolin-2-one]	104	246	376
CCN(C)c1ccc(-c2ccc3ncc4c(c3c2)n(-c2cn(C)nc2C)c(=O)n4C)cn1 [Example 98.1, 1-(1,3-Dimethyl-1H-pyrazol-4-yl)-8-[6-(ethyl-methyl-amino)-pyridin-3-yl]-3-methyl-1,3-dihydro-imidazo[4,5-c]quinolin-2-one]	34	407	20
COC(=O)c1ccc(-c2ccc3ncc4c(c3c2)n(-c2cn(C)nc2C)c(=O)n4C)cn1 [Example 100, 5-[1-(1,3-Dimethyl-1H-pyrazol-4-yl)-3-methyl-2-oxo-2,3-dihydro-1H-imidazo[4,5-c]quinolin-8-yl]-pyridine-2-carboxylic acid methyl ester]	18	140	6
COCc1ccc(-c2ccc3ncc4c(c3c2)n(-c2cn(C(C)C)nc2C)c(=O)n4C)cn1 [Example 105, 1-(1-Isopropyl-3-methyl-1H-pyrazol-4-yl)-8-(6-methoxymethyl-pyridin-3-yl)-3-methyl-1,3-dihydro-imidazo[4,5-c]quinolin-2-one]	110	163	95
COc1ccc(-c2ccc3ncc4[nH]c(=O)n(-c5cn(C)nc5C)c4c3c2)cn1 [Example 109, 1-(1,3-Dimethyl-1H-pyrazol-4-yl)-8-(6-methoxy-pyridin-3-yl)-1,3-dihydro-imidazo[4,5-c]quinolin-2-one]	12	38	11
Cc1nn(C)cc1-n1c(=O)n(C)c2cnc3ccc(-c4cnc5c(ccn5C)c4)cc3c21 [Example 116, 1-(1,3-Dimethyl-1H-pyrazol-4-yl)-3-methyl-8-(1-methyl-1H-pyrrolo[2,3-b]pyridin-5-yl)-1,3-dihydro-imidazo[4,5-c]quinolin-2-one]	12	206	15
CNC(=O)c1cc(-c2ccc3ncc4c(c3c2)n(-c2cn(C)nc2C)c(=O)n4C)cnc1OC [Example 125.1, 5-[1-(1,3-Dimethyl-1H-pyrazol-4-yl)-3-methyl-2-oxo-2,3-dihydro-1H-imidazo[4,5-c]quinolin-8-yl]-2-methoxy-N-methyl-nicotinamide]	28	61	51
Cc1nn(C)cc1-n1c(=O)n(C)c2cnc3ccc(-c4ccc(N5CCNCC5)nc4)cc3c21 [Example 126, 1-(1,3-Dimethyl-1H-pyrazol-4-yl)-3-methyl-8-(6-piperazin-1-yl-pyridin-3-yl)-1,3-dihydro-imidazo[4,5-c]quinolin-2-one]	51	802	97
COc1ncc(-c2ccc3ncc4c(c3c2)n(-c2cn(C)nc2C)c(=O)n4C)cc1N [Example 127, 8-(5-Amino-6-methoxy-pyridin-3-yl)-1-(1,3-dimethyl-1H-pyrazol-4-yl)-3-methyl-1,3-dihydro-imidazo[4,5-c]quinolin-2-one]	20	44	5
